Experimental data reported in patent US20140329780A1, “INHIBITOR OF COLONISATION OF MUCOSA” (HELMHOLTZ-ZENTRUM FUER INFEKTIONSFORSCHUNG GMBH, priority 2011, published 2014).
“Also recorded” adds a separate entry of the source. Where two headings read alike, the source gives them in different places.

Assays:
[1] = test system: S. aureus N315; assay: Adhesion test: inhibition of adherence of S. aureus N315 on A549 cells; assay type: cell-based, Staphylococcus aureus; conditions: for Reduction of adhesion [%]: S. aureus on A549 cells
Experimental: S. aureus (N315) was precultivated on blood agar plates at 37° C. overnight. A colony was picked from the plate with a sterile loop and transferred into 5 ml of BHI medium. The suspension was incubated aerobically at 37° C. for 18 h. After this time the bacterial suspension was centrifugated and the clear medium was decanted off. The pellet was resuspended in PBS and centrifugated again twice. Finally the pellet was resuspended in infection medium at an OD of 1.0 at 600 nm.
Infection medium: Gibco RPMI 1640medium, pH 7.4 (Invitrogen, Carlsbad, USA), containing 1% FBS and 20 mM Hepes.
All media that were used were prewarmed to 37° C. The cell line A-549 was utilized. A-549 cells from a stock that was stored at −196° C. were quickly thawed and suspended in 10 ml of cell culture medium (DMEM (Lonza, Basel, Schweiz) containing 10% FBS (Invitrogen, Carlsbad, USA)). They were cultivated at 37° C. with 10% CO2 in cell culture bottles with a surface of 25 cm^2 under moisture saturation. The next day, the medium was removed and fresh medium was added. The cells were harvested at a confluency state of 80-90% by scrapping them off the bottom of the bottles and pipetting the suspension up and down several times. An aliquot was transferred into a fresh cell culture bottle with fresh medium. After another round of growth to 80-90% confluency the medium was removed and the cell layer was washed with 10 ml of sterile EBSS (Invitrogen). After removing the liquid, 1 ml of a 1% solution of trypsin was evenly distributed over the cell layer. After an incubation for 5 min at 37° C. and a visible detachment of the cell layer, 10 ml of fresh cell culture medium were added, the cells were resuspended and counted in a Neubauer cell counting chamber. A cell density of 100,000 /ml was adjusted and 100 μl of the cell suspension was distributed into the wells of a 96-well microtiter plate. The plate was incubated at 37° C. with 10% CO2 and moisture saturation until the cells had formed an adherent monolayer with 95-100% confluency (4-5 days). The medium was removed by pipetting and 75 μl of fresh infection medium were added to each well, followed by 25 μl of a bacterial suspension (OD600 1.0), together with different concentrations of the test compound. After an incubation time of 60 min at room temperature the medium and non-adherent bacteria were removed with a pipette and the wells were washed three times with PBS.
For fixing the cells a solution of 4% paraformaldehyde in PBS was added and incubated for 20 min at room temperature. After removing the solution and washing the cells with PBS twice, a primary antibody against S. aureus lipoteichoic acid (from rabbit, Acris Antibodies GmbH, Herford) at 1:5000 dilution in 1% BSA-PBS was added (50 μl/Well) and incubated for 45 min at room temperature. During the last 10 min of this incubation an additional 50 μl/well of a solution of DAPI ((4′,6 Diamidino-2-phenylindol)dihydrochloride) in PBS (final concentration 1 μg/ml) was added. After a washing step an incubation with the HRP-conjugated secondary antibody (goat anti rabbit, Dianova) in 1% BSA-PBS for 45 min at room temperature was carried out. For detection of chemiluminescence the BM chemiluminescence ELISA substrate (POD—peroxidase-based secondary detection systems, Roche) was used. Chemiluminescence was determined immediately after addition of the substrate with a chemiluminescence microtiter plate reader.
The detection and quantification of the adherent bacteria can also be carried out with a fluorescence-coupled secondary antibody, for which Alexa Fluor 488 goat anti rabbit at 1:1000 dilution was used. The determination of fluorescence was done after washing with PBS and adding 100 μl PBS per well with a fluorescence microtiter plate reader at 485/530 nm.
Another and very favourable way to quantify the adherent bacteria is the utilization of an automatic microscope.
The procedure is described for the ImageXpress Micro (IXM, Molecular Devices) […]

[2] = test system: S. aureus; assay: Influence of ATA on S. aureus already adhering to A549 cells; assay type: cell-based, Staphylococcus aureus
Experimental: Black bars represent 0.95 μg/ml ATA and white bars represent 2.2 μg/ml. A549 cells were incubated with S. aureus for 1 hour in advance and then ATA was added. Shown are the results for adherence after incubation with ATA for the time period indicated in the graph.
All media that were used were prewarmed to 37° C. The cell line A-549 was utilized. A-549 cells from a stock that was stored at −196° C. were quickly thawed and suspended in 10 ml of cell culture medium (DMEM (Lonza, Basel, Schweiz) containing 10% FBS (Invitrogen, Carlsbad, USA)). They were cultivated at 37° C. with 10% CO2 in cell culture bottles with a surface of 25 cm^2 under moisture saturation. […] After an incubation for 5 min at 37° C. and a visible detachment of the cell layer, 10 ml of fresh cell culture medium were added, the cells were resuspended and counted in a Neubauer cell counting chamber. […]
For fixing the cells a solution of 4% paraformaldehyde in PBS was added and incubated for 20 min at room temperature. […] Chemiluminescence was determined immediately after addition of the substrate with a chemiluminescence microtiter plate reader.
Next, the influence of ATA at two different concentrations corresponding to the IC50 and IC90 values determined in Example 2, on adhering S. aureus cells has been determined. […] The adhesion has been calculated on the basis of 100% adhesion in the absence of ATA.

[3] = test system: different S. aureus isolates (50128509, BH30(04), 50307270, BH30(04) spa, 50046981); assay: Inhibition of adherence of different S. aureus isolates; assay type: cell-based, Staphylococcus aureus; conditions: MRSA, rifampicin-resistant, tetracycline resistant and methicillin sensitive isolates
Source text: The inhibitory properties of ATA on different S. aureus isolates have been determined using the following strains: 50128509 (MRSA; source: HZI Braunschweig), BH30(04) (MRSA; biofilm positive; SCCmec type II; MLST type 8; CC8; kindly provided by Prof. Jim O'Gara), 50307270 (rifampicin-resistant; source HZI Braunschweig), BH30(04) spa (tetracycline resistant; kindly provided by Prof. Jim O'Gara), 50046981 (methicllin sensitive; source: HZI Braunschweig).
Adherence has been determined as described above.

[4] = test system: S. aureus N315; assay: Inhibition of adherence of S. aureus N315 on human primary nasal epithelial cells; assay type: cell-based, Staphylococcus aureus; conditions: 1 μg/ml ATA
Experimental: The experiments with the human nasal primary cells (HNEPC, Provitro GmbH, Berlin) were used as described for the A-549 cells and used for up to four passages (corresponding to approx. four weeks). For the HNEPC, Airway epithelial cell growth medium (Provitro GmbH, Berlin) was used.
Following the general procedure as described above, the properties of ATA on inhibiting adhesion of S. aureus N315 on human primary epithelial cells was investigated. ATA was added at different concentrations to the culture and adherence was determined as described before. Already a concentration of 1 μg/ml ATA is sufficient to reduce the adherence of S. aureus to about 45%.

[5] = test system: MRSA strain N315; assay: Anti-bacterial activity / growth curves of MRSA strain N315; assay type: cell-based, Staphylococcus aureus
Source text: That is, it has been recognized that ATA is able to inhibit adherence of bacteria, like S. aureus, including MRSA strains while not showing an anti-bacterial activity.

[6] = test system: host cells; assay: Effects on host cells; assay type: cell-based
[7] = Staphylococcus aureus, N315, A549
[8] = adhesion of S. aureus N315 on A549 cells

SMILES	Reduction of adhesion [%] ([1]; 100 μM)	IC50 [1, 7]	IC90 [1, 7]	IC10 [1, 8]	Reduction of adhesion [%] ([1]; ≦50 μM)	percentage of adherence of S. aureus compared to the control with no ATA ([2]; 2.2 μg/ml ATA added after 1 hour pre-incubation of A549 cells with S. aureus, after 3 hours)	eradication of S. aureus after adherence to cells ([2]; ATA at IC50 and IC90 concentrations added after 1 hour adherence to A549 cells)	inhibitory activity on adherence of different S. aureus strains [3]	adherence of S. aureus [4]	anti-bacterial effect (growth curves of MRSA strain N315) ([5]; 40 ug/ml, FIG. 6)	influence on growth of the MRSA strain ([5]; 48 μg/ml, FIG. 6)	anti-bacterial activity ([5]; concentration up to 100 μg/ml)	effects on host cells [6]	IC50 ([1]; adhesion of S. aureus N315 on A549 cells, read-out: IC50)	IC90 ([1]; adhesion of S. aureus N315 on A549 cells, read-out: IC90)
O=C(O)C1=CC(=C(c2ccc(O)c(C(=O)O)c2)c2ccc(O)c(C(=O)O)c2)C=CC1=O [ATA, aurintricarboxylic acid]	>90%	0.95 µg/mL	~2.2 µg/mL	~0.45 µg/mL	>90%	below 40%	potent in eradicating S. aureus after adherence to cells	effective on different types of S. aureus strains	about 45%	does not have an anti-bacterial effect	does not significantly influence growth	no anti-bacterial activity is present; also recorded: does not show anti-bacterial activity	no remarkable effects have been observed on host cells		
Cc1cc(=O)c2c(O)c3c(O)cc(O)c4c5c(O)cc(O)c6c(O)c7c(=O)cc(CO)c8c1c2c(c34)c(c65)c78 [pseudohypericine]	>90%			20 µM	50%									51 µM	80 µM
